Data published in US20050042239A1, “Process for preparing biocide formulations” (priority 2003, published 2005).

How the values were obtained:
algae = assay: Dosing of micro-mixed emulsion to cooling tower water: control of algae; conditions: 3 ppm isothiazolone in cooling water of cooling tower
Procedure: A 50 wt. % solution of 4,5-dichloro-2-octyl-3-isothiazolone in benzyl alcohol is fed to an array of slit shaped interdigital micro-mixers at a feed rate of 50 mL/minute, combined with water fed to the micro-mixer at a feed rate of 600 mL/minute. The water contains no surfactants. The resulting emulsion exiting the micro-mixer it is directly dosed to cooling water in a 50,000 gallon […] cooling tower, where is effectively distributed and re-circulated throughout the cooling water. After about 20 minutes, the isothiazolone concentration in the cooling water reaches a desired concentration of 3 ppm and the emulsion feed is stopped. […] Focusing micro-mixers also produce similar results as compared to the micro-mixers described above. Melted 2-octyl-3-isothiazolone as a neat liquid is fed to an array of slit shaped interdigital micro-mixers at a feed rate of 50 mL/minute, combined with water fed to the micro-mixer at a feed rate of 600 mL/minute. The water contains no surfactants and solvents. The resulting emulsion exiting the micro-mixer it is directly dosed to cooling water in a 50,000 gallon […] cooling tower, where is effectively distributed and re-circulated throughout the cooling water. After about 20 minutes, the isothiazolone concentration in the cooling water reaches a desired concentration of 3 ppm and the emulsion feed is stopped. […]

mold = assay: Dosing of micro-mixed emulsion to paper pulp slurry tank: mold proofing of paper; conditions: surfactant-free emulsion from 50 wt. % solution in benzyl alcohol (56 mL/minute) micro-mixed with water, charged to 10,000 liter pulp slurry tank
Procedure: A 10,000 liter pulp slurry tank has a continuous throughput averaging 6,600 liters/minute. A 50 wt. % solution of 4,5-dichloro-2-octyl-3-isothiazolone in benzyl alcohol is fed to an array of slit shaped interdigital micro-mixers at a feed rate of 56 mL/minute, combined with water fed to the micro-mixer at a feed rate of 600 mL/minute. The water contains no surfactants. The resulting emulsion exiting the micro-mixer is directly charged to water in the pulp slurry tank, where it is effectively distributed and re-circulated throughout the tank water. […] Focusing micro-mixers also produce similar results as compared to the micro-mixers described above.

Row | SMILES | control of algae in cooling water (algae; surfactant- and solvent-free emulsion from melted neat liquid micro-mixed with water) | control of algae in cooling water (algae; surfactant-free emulsion from 50 wt. % solution in benzyl alcohol micro-mixed with water) | mold proofing in paper prepared from treated pulp (mold)
1 | CCCCCCCCn1sccc1=O [2-octyl-3-isothiazolone] | Effective control of algae |  | 
2 | CCCCCCCCn1sc(Cl)c(Cl)c1=O [4,5-dichloro-2-octyl-3-isothiazolone] |  | Effective control of algae | effective mold proofing
